# Results reported in patent publication US20250144067A1, “PERSONALIZED STARVATION THERAPY FOR CANCER” (Faeth Therapeutics, Inc., priority 2021, published 2025).
# Structures can show the parent of a compound that is named as a salt. Where two headings read alike, the source gives them in different places.
# Tests used:
# [1] = system: NCI-H292 lung cancer cells; assay: FDA drug screening, complete media vs cholesterol-free media with simvastatin (TABLE 2); type: cell-based, human
# [2] = system: NCI-H292 lung cancer cells; assay: FDA drug screening, complete media vs cholesterol-free media without statin (TABLE 1); type: cell-based, human
# [3] = NCI-H292 cells, FDA drug library screen, cholesterol-free media with simvastatin 0.04 μM
# [4] = NCI-H292 cells, FDA drug library screen, complete media
# [5] = complete media vs cholesterol-free media + simvastatin (0.04 μM), […]
# [6] = Complete minus Cholesterol-free, […]
# [7] = NCI-H292 cells, FDA drug library screen, cholesterol-free media without statin
# [8] = NCI-H292 cells, cholesterol-free media with simvastatin 0.04 μM, cell growth value in FDA drug screen
# [9] = NCI-H292 cells, complete media, cell growth value in FDA drug screen
# [10] = complete media minus cholesterol-free media + simvastatin, >0 enhanced anti-cancer activity, about 0 neutral, <0 antagonist
# [11] = Complete minus Cholesterol-free, greater than 0 enhanced anti-cancer activity, about 0 neutral, below 0 antagonists
# [12] = NCI-H292 cells in cholesterol-free media without statin
# [13] = NCI-H292 cells in complete media
# [14] = complete media vs cholesterol-free media + simvastatin (0.04 μM), >0 enhanced anti-cancer activity, about 0 neutral, <0 antagonist
# [15] = NCI-H292 cells, FDA library drug in cholesterol-free media with simvastatin 0.04 μM
# [16] = NCI-H292 cells, FDA library drug in complete media
# [17] = NCI-H292 cells, cholesterol-free media without statin, FDA drug library screen
# [18] = NCI-H292 cells, complete media, FDA drug library screen
# [19] = complete vs cholesterol-free media, >0 enhanced anti-cancer activity, about 0 neutral, <0 antagonist
# [20] = Complete minus Cholesterol-free, >0 enhanced anti-cancer activity, about 0 neutral, <0 antagonist
# [21] = Complete minus Cholesterol-free, greater than 0 enhanced anti-cancer activity, about 0 neutral, below 0 antagonist
# [22] = NCI-H292 cells, drug in cholesterol-free media with simvastatin 0.04 μM
# [23] = NCI-H292 cells, drug in complete media
# [24] = NCI-H292 cells, cholesterol-free media without statin
# [25] = NCI-H292 cells, cholesterol-free media with simvastatin 0.04 μM, FDA drug library screen (TABLE 2)
# [26] = NCI-H292 cells, complete media, FDA drug library screen (TABLE 2)
# [27] = complete media minus cholesterol-free media + simvastatin (0.04 μM), >0 enhanced anti-cancer activity, about 0 neutral, <0 antagonist
# [28] = complete media minus cholesterol-free media + simvastatin, […]
compound,measurement,setting,value
CSCCNc1nc(SCCC(F)(F)F)nc2c1ncn2[C@@H]1O[C@H](COP(=O)([O-])OP(=O)([O-])C(Cl)(Cl)P(=O)([O-])[O-])[C@@H](O)[C@H]1O.[Na+].[Na+].[Na+].[Na+] [Cangrelor (tetrasodium)],Cholesterol-free media + simvastatin (0.04 μM),[1]; [3],1.209
same,Complete Media,[1]; [4],1.098
same,Difference,[1]; [5],−0.11
same,Difference,[2]; [6],−0.14
same,Cholesterol-free,[2]; [7],1.189
same,Complete,[2]; [4],1.05
CCCCOc1cc(C(=O)NCCN(CC)CC)c2ccccc2n1 [Dibucaine],Cholesterol-free media + simvastatin (0.04 μM),[1]; [8],0.8438
same,Complete Media,[1]; [9],0.9323
same,Difference,[1]; [10],0.09
same,Difference,[2]; [11],−0.63
same,Cholesterol-free,[2]; [12],1.382
same,Complete,[2]; [13],0.749
COc1ccc(C(=O)CC(=O)c2ccc(C(C)(C)C)cc2)cc1 [Avobenzone],Cholesterol-free media + simvastatin (0.04 μM),[1]; [3],1.07
same,Complete Media,[1]; [4],0.9672
same,Difference,[1]; [14],−0.10
same,Difference,[2]; [11],−0.48
same,Cholesterol-free,[2]; [12],1.457
same,Complete,[2]; [13],0.9767
N=C(N)NCCCC(N)C(=O)O (racemic) [DL-Arginine],Cholesterol-free media + simvastatin (0.04 μM),[1],0.9889
same,Complete Media,[1],0.9776
same,Difference,[1],−0.01
same,Cholesterol-free,[2],1.525
same,Complete,[2],1.476
same,Difference,[2],−0.05
CN(C)[C@@H]1C(O)=C(C(N)=O)C(=O)[C@@]2(O)C(O)=C3C(=O)c4c(O)cccc4[C@@](C)(O)[C@H]3[C@H](O)[C@@H]12 [Oxytetracycline],Cholesterol-free media + simvastatin (0.04 μM),[1]; [15],2.284
same,Complete Media,[1]; [16],1.447
same,Difference,[1]; [14],−0.84
same,Cholesterol-free,[2]; [17],0.9301
same,Complete,[2]; [18],1.086
same,Difference,[2]; [19],0.16
O=C(O)/C=C/c1ccc(O)c(O)c1 [Caffeic acid],Cholesterol-free media + simvastatin (0.04 μM),[1]; [3],0.9424
same,Complete Media,[1]; [4],0.8032
same,Difference,[1]; [14],−0.14
same,Difference,[2]; [20],0.01
same,Cholesterol-free,[2]; [17],0.885
same,Complete,[2]; [18],0.8915
COC(=O)C1=C(C)NC(C)=C(C(=O)OC(C)(C)CN(C)CCC(c2ccccc2)c2ccccc2)C1c1cccc([N+](=O)[O-])c1 (centres unmarked) [Lercanidipine (hydrochloride)],Cholesterol-free media + simvastatin (0.04 μM),[1]; [8],0.8086
same,Complete Media,[1]; [9],0.8565
same,Difference,[1]; [10],0.05
same,Difference,[2]; [21],−0.18
same,Cholesterol-free,[2]; [7],0.8895
same,Complete,[2]; [4],0.7061
C=CCN1CCc2nc(N)sc2CC1 [Talipexole dihydrochloride],Cholesterol-free media + simvastatin (0.04 μM),[1]; [22],1.333
same,Complete Media,[1]; [23],1.079
same,Difference,[1]; [14],−0.25
same,Difference,[2]; [21],−0.09
same,Cholesterol-free,[2]; [7],1.016
same,Complete,[2]; [4],0.9282
Icatibant (acetate),Cholesterol-free media + simvastatin (0.04 μM),[1]; [22],1.025
same,Complete Media,[1]; [23],0.7948
same,Difference,[1]; [5],−0.23
same,Cholesterol-free,[2]; [24],1.121
same,Complete,"[2]; NCI-H292 cells, complete media",0.7693
same,Difference,"[2]; complete vs cholesterol-free media, […]",−0.35
COc1ccc2cccc(CCNC(C)=O)c2c1 [Agomelatine],Cholesterol-free media + simvastatin (0.04 μM),[1]; [15],1.184
same,Complete Media,[1]; [16],0.8914
same,Difference,[1]; [14],−0.29
same,Cholesterol-free,[2]; [17],0.6611
same,Complete,[2]; [18],0.8138
same,Difference,[2]; [19],0.15
Cc1nnc(NS(=O)(=O)c2ccc(N)cc2)s1 [Sulfamethizole],Cholesterol-free media + simvastatin (0.04 μM),[1]; [25],1.154
same,Complete Media,[1]; [26],1.13
same,Difference,[1]; [27],−0.02
same,Cholesterol-free,[2]; [17],0.6059
same,Complete,[2]; [18],1.186
same,Difference,[2]; [19],0.58
C[C@H](Oc1cc(-c2cnn(C3CCNCC3)c2)cnc1N)c1c(Cl)ccc(F)c1Cl [(S)-Crizotinib],Cholesterol-free media + simvastatin (0.04 μM),[1]; [3],1.094
same,Complete Media,[1]; [4],0.9518
same,Difference,[1]; [5],−0.14
same,Difference,[2]; [6],0.02
same,Cholesterol-free,[2]; [17],1.253
same,Complete,[2]; [18],1.275
NS(=O)(=O)c1cc(C2(O)NC(=O)c3ccccc32)ccc1Cl (centres unmarked) [Chlorthalidone],Cholesterol-free media + simvastatin (0.04 μM),[1]; [22],1.215
same,Complete Media,[1]; [23],0.9907
same,Difference,[1]; [14],−0.22
same,Difference,[2]; [20],−0.22
same,Cholesterol-free,[2]; [24],1.209
same,Complete,"[2]; NCI-H292 cells, complete media",0.9927
CC(C)(C(=O)c1cccnc1)c1cccnc1 [Metyrapone],Cholesterol-free media + simvastatin (0.04 μM),[1]; [8],0.9563
same,Complete Media,[1]; [9],1.066
same,Difference,[1]; [10],0.11
same,Cholesterol-free,[2]; [24],1.096
same,Complete,"[2]; NCI-H292 cells, complete media",0.7386
same,Difference,"[2]; complete vs cholesterol-free media, greater than 0 enhanced anti-cancer activity, about 0 neutral, below 0 antagonists",−0.36
CCN(CC)CC(=O)Nc1c(C)cccc1C [Lidocaine],Cholesterol-free media + simvastatin (0.04 μM),[1]; [15],1.433
same,Complete Media,[1]; [16],1.088
same,Difference,[1]; [14],−0.34
same,Difference,[2]; [11],−0.78
same,Cholesterol-free,[2]; [12],1.775
same,Complete,[2]; [13],0.9935
CC1(C)CCC(C)(C)c2cc(NC(=O)c3ccc(C(=O)O)cc3)ccc21 [Tamibarotene],Cholesterol-free media + simvastatin (0.04 μM),[1]; [3],0.556
same,Complete Media,[1]; [4],0.7365
same,Difference,[1]; [28],0.18
same,Difference,[2]; [6],−0.24
same,Cholesterol-free,[2]; [24],0.7767
same,Complete,"[2]; NCI-H292 cells, complete media",0.5392
C[C@H]1C[C@H]2[C@@H]3CCC4=CC(=O)C=C[C@]4(C)[C@@]3(Cl)[C@@H](O)C[C@]2(C)[C@@]1(O)C(=O)CO [Beclometasone],Cholesterol-free media + simvastatin (0.04 μM),"[1]; NCI-H292 cells, cholesterol-free media with simvastatin 0.04 μM, […]",0.7122
same,Complete Media,"[1]; NCI-H292 cells, complete media, […]",0.7656
same,Difference,[1]; [28],0.05
same,Difference,[2]; [6],−0.04
same,Cholesterol-free,[2]; [17],1.244
same,Complete,[2]; [18],1.205
C=CC(=O)Nc1cc(Nc2nccc(-c3cn(C4CC4)c4ccccc34)n2)c(OC)cc1N(C)CCN(C)C [Almonertinib (hydrochloride)],Cholesterol-free media + simvastatin (0.04 μM),[1]; [8],0.6861
same,Complete Media,[1]; [9],0.7198
same,Difference,[1]; [10],0.03
same,Difference,[2]; [20],−0.07
same,Cholesterol-free,[2]; [17],0.4284
same,Complete,[2]; [18],0.3618
CCCCC1C(=O)N(c2ccccc2)N(c2ccccc2)C1=O [Phenylbutazone],Cholesterol-free media + simvastatin (0.04 μM),[1]; [8],1.076
same,Difference,[1]; [10],0.07
same,Difference,[2]; [20],−0.26
same,Cholesterol-free,[2]; [24],1.376
same,Complete,"[2]; NCI-H292 cells, complete media",1.114
CC(COc1ccccc1)N(CCCl)Cc1ccccc1 (centres unmarked) [Phenoxybenzamine (hydrochloride)],Cholesterol-free media + simvastatin (0.04 μM),[1]; [25],0.9012
same,Complete Media,[1]; [26],0.8799
same,Difference,"[1]; complete media minus cholesterol-free media + simvastatin (0.04 μM), […]",−0.02
same,Difference,[2]; [6],−0.20
same,Cholesterol-free,[2]; [24],0.9421
same,Complete,"[2]; NCI-H292 cells, complete media",0.7375
CCn1cc(C(=O)O)c(=O)c2cc(F)c(N3CCNCC3)nc21 [Enoxacin (hydrate)],Cholesterol-free media + simvastatin (0.04 μM),[1]; [25],1.166
same,Complete Media,[1]; [26],1.164
same,Difference,[1]; [27],0.00
same,Difference,[2]; [11],−0.49
same,Cholesterol-free,[2]; [12],1.532
same,Complete,[2]; [13],1.045
O=C(c1ccc(F)cc1)C1CCN(CCn2c(=O)[nH]c3ccccc3c2=O)CC1 [Ketanserin],Cholesterol-free media + simvastatin (0.04 μM),[1]; [8],1.439
same,Complete Media,[1]; [9],1.462
same,Difference,[1]; [10],0.02
same,Difference,[2]; [11],−0.47
same,Cholesterol-free,[2]; [12],1.183
same,Complete,[2]; [13],0.7093
